US9504255B2, “Physical antimicrobial method” (priority 2012, dated 2016)

Tests used:
Escherichia coli = test: Drug-resistance experiment on pathogens isolated from the Department of Burns (NCCLS 1997); assay type: cell-based; conditions: clinical isolates
aerogenes = test: as above; assay type: cell-based, Enterobacter aerogenes; conditions: clinical isolates
Enterobacter cloacae = test: as above; assay type: cell-based; conditions: clinical isolates
Acinetobacter = test: as above; assay type: cell-based; conditions: clinical isolates
MSSA = test: as above; assay type: cell-based, Staphylococcus aureus; conditions: clinical isolates
Pseudomonas aeruginosa = test: as above; assay type: cell-based; conditions: clinical isolates
[1] = tested on: patients clinically diagnosed with impetigo; test: Experiment of treatment of impetigo; assay type: in vivo, human; conditions: to the affected area 2 times a day, for 7 days
Protocol: 1652 patients clinically diagnosed with impetigo by the Department of Dermatology in the hospital were chosen and randomly divided into experimental group (n=1032) and control group (n=620). The experimental group was treated with the antimicrobial composition of the invention to the affected area, and the control group was treated with mupirocin, 2 times a day, for 7 days.

| Molecule | resistance rate of Escherichia coli (Escherichia coli) [%] | resistance rate of Acinetobacter (Acinetobacter) [%] | resistance rate of Pseudomonas aeruginosa (Pseudomonas aeruginosa) [%] | further results |
| --- | --- | --- | --- | --- |
| CC1(C)S[C@@H]2[C@H](NC(=O)[C@H](N)c3ccccc3)C(=O)N2[C@H]1C(=O)O [ampicillin] | 80.1 | – | – | – |
| Cc1nnc(SCC2=C(C(=O)O)N3C(=O)[C@@H](NC(=O)Cn4cnnn4)[C@H]3SC2)s1 [cefazolin] | 40.0 | – | – | resistance rate of aerogenes (aerogenes): 79.3%; resistance rate of Enterobacter cloacae (Enterobacter cloacae): 89.3% |
| CCN1CCN(C(=O)N[C@@H](C(=O)N[C@@H]2C(=O)N3[C@@H]2SC(C)(C)[C@@H]3C(=O)O)c2ccccc2)C(=O)C1=O [piperacillin] | – | 93.3 | – | – |
| penicillin | – | – | – | resistance rate of MSSA (MSSA): 87.0% |
| piperazine amoxicillin | – | – | 34.1 | – |
| CC(C)(O/N=C(\C(=O)N[C@@H]1C(=O)N2C(C(=O)[O-])=C(C[n+]3ccccc3)CS[C@H]12)c1csc(N)n1)C(=O)O [ceftazidime] | – | 21.2 | 21.7 | – |
| gentamicin | 40.9 | 18.9 | 35.3 | resistance rate of aerogenes (aerogenes): 8.2%; resistance rate of Enterobacter cloacae (Enterobacter cloacae): 28.1% |
| C/C(=C\C(=O)OCCCCCCCCC(=O)O)C[C@@H]1OC[C@H](C[C@@H]2O[C@H]2[C@@H](C)[C@H](C)O)[C@@H](O)[C@H]1O [mupirocin] | – | – | – | effective rate [1]: 85% |
